Structures are written as SMILES. Calls of active or inactive are those of the source. The calls are words filed in the database; no cut-off is given here.

Broadly, the IC50 is the midpoint of a concentration-inhibition curve.

For the first test, the species on record is Homo sapiens. The test is described as follows: Anti-tussive activity in idiopathic/treatment-resistant chronic cough patient assessed as cough severity visual analogue scales at 600 mg BID measured after 2 weeks during double-blind randomized placebo-controlled crossover trial. It counts as functional.
For `COc1cc(C(C)C)c(Oc2cnc(N)nc2N)cc1S(N)(=O)=O` [GEFAPIXANT], the Activity is given as -26 mm.

For another test, the target named is T1, P2X purinoceptor 3 (Rattus norvegicus, UniProt P49654).
T1 sequence (P49654 whole entry): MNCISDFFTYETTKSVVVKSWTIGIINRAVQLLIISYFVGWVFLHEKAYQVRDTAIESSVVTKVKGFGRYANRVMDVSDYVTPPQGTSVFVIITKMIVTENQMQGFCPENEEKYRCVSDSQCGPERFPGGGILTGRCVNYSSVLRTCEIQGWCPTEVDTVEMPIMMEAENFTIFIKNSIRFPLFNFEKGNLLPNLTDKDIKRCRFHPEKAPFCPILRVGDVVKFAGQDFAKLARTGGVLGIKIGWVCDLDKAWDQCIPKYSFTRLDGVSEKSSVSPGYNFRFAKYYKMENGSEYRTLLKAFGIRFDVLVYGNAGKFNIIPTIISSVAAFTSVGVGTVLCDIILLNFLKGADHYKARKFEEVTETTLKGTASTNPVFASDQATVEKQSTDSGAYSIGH
The test is described as follows: (§1) Antagonist activity against rat P2X3 receptor expressed in CHO-K1 cells assessed as effect on calcium level incubated for 20 mins by Fluo-3AM dye based FLIPR assay. It counts as functional, cell-based.
For the molecule `CC(C)c1cc(O)c(I)cc1Oc1cnc(N)nc1N`, the IC50 is 5.01 nM.

The target in a further test is T2, P2X purinoceptor 3 (Rattus norvegicus) (UniProt P49654).
T2 sequence (whole entry): T1 sequence (P49654 whole entry)
Described as §1. It counts as functional, cell-based.
As for `CC(C)c1cc(OCC(F)(F)F)c(I)cc1Oc1cnc(N)nc1N`, the inhibition entry was “Active”.
Same read-out and setting: under `CCNS(=O)(=O)c1cc(Oc2cnc(N)nc2N)c(C(C)C)cc1OC` stands “Active”.
Same read-out and setting: then `COc1cc(C(C)C)c(Oc2cnc(N)nc2N)cc1C(=O)O`, with “Active”.
On the same count and under the same terms, then `COc1cc(C(C)C)c(Oc2cnc(N)nc2N)cc1C(C)(C)O`, with “Active”; and `CC(=O)c1cc(Oc2cnc(N)nc2N)c(C(C)C)cc1O`, with “Active”; and `CCNC(=O)Nc1cc(Oc2cnc(N)nc2N)c(C(C)C)cc1OC`, with “Active”.
For `COc1cc(C(C)C)c(Oc2cnc(N)nc2N)cc1I`, the inhibition result is “Active”.
In the case of `COc1cc(C(C)C)c(Oc2cnc(N)nc2N)cc1C`, the inhibition result was “Active”.
Take `COc1cc(C(C)C)c(Oc2cnc(N)nc2N)cc1C(F)(F)F`: the inhibition entry is “Active”.
On to `COc1cc(C(C)C)c(Oc2cnc(N)nc2N)cc1C#N`, for which the inhibition result was “Active”.
Regarding `C#CCOc1cc(C(C)C)c(Oc2cnc(N)nc2N)cc1I`, the inhibition result was “Active”.
As to `COc1cc(C(C)C)c(Oc2cnc(N)nc2N)cc1C(C)=O`, the inhibition entry is “Active”.
As to `COc1cc(C(C)C)c(Oc2cnc(N)nc2N)cc1S(N)(=O)=O` [GEFAPIXANT], the inhibition result is “Active”.
For the molecule `CC(C)c1cc(O)c(I)cc1Cc1cnc(N)nc1N`, the inhibition result was “Active”.
With `COc1cc(C(C)C)c(Oc2cnc(N)nc2N)cc1C(C)C`, the inhibition entry is “Active”.
Regarding `COc1cc(C(C)C)c(Oc2cnc(N)nc2N)cc1Cl`, the inhibition result is “Active”.
On the same count and under the same terms, then `COc1cc(Oc2cnc(N)nc2N)c(C(C)C)cc1OC`, with “Active”.
Consider `C=Cc1cc(Oc2cnc(N)nc2N)c(C(C)C)cc1OC`, for which the inhibition result is “Active”.
On to `COc1cc(C(C)C)c(Oc2cnc(N)nc2N)cc1C(N)=O`, for which the inhibition result is “Active”.
Take `COc1cc(C(C)C)c(Oc2cnc(N)nc2N)cc1F`: the inhibition entry was “Active”.
Turning to `COc1cc(C(C)C)c(Oc2cnc(N)nc2N)cc1[N+](=O)[O-]`, the inhibition result is “Active”.
Still for that read-out and setting: then `COc1cc(C(C)C)c(Oc2cnc(N)nc2N)cc1N`, with “Active”.
`CNC(=O)c1cc(Oc2cnc(N)nc2N)c(C(C)C)cc1OC`: the inhibition result is “Active”.
Turning to `CC(C)c1cc(OC(F)F)c(Cl)cc1Oc1cnc(N)nc1N`, the inhibition entry is “Active”.
On to `COc1cc(C(C)C)c(Oc2cnc(N)nc2N)cc1C(=O)N(C)C`, for which the inhibition result is “Active”.
Consider `COc1cc(C(C)C)c(Oc2cnc(N)nc2N)cc1Br`, for which the inhibition entry is “Active”.
`COc1cc(C(C)C)c(Oc2cnc(N)nc2N)cc1NC(N)=O`: the inhibition entry was “Active”.
Turning to `CCOc1cc(C(C)C)c(Oc2cnc(N)nc2N)cc1I`, the inhibition entry is “Active”.
On to `COc1cc(C(C)C)c(Oc2cnc(N)nc2N)cc1NC(=O)Nc1ccccc1`, for which the inhibition entry was “Active”.
With `COc1cc(C(C)C)c(Oc2cnc(N)nc2N)cc1S(C)(=O)=O`, the inhibition entry is “Active”.
As to `COc1cc(C(C)C)c(Oc2cnc(N)nc2N)cc1NC(C)=O`, the inhibition result was “Active”.
In the case of `COc1cc(C(C)C)c(Oc2cnc(N)nc2N)cc1C(C)OC` (configuration not stated), the inhibition result is “Active”.
As to `CNS(=O)(=O)c1cc(Oc2cnc(N)nc2N)c(C(C)C)cc1OC`, the inhibition result was “Active”.
Still for that read-out and setting: under `CCS(=O)(=O)c1cc(Oc2cnc(N)nc2N)c(C(C)C)cc1OC` stands “Active”.
With `COc1cc(C(C)C)c(Oc2cnc(N)nc2N)cc1OC(F)(F)F`, the inhibition entry was “Active”.
On to `COc1cc(C(C)C)c(Oc2cnc(N)nc2N)cc1C(C)O` (configuration not stated), for which the inhibition result is “Active”.

The species named for another test is Homo sapiens. The test is described as follows: Anti-tussive activity in idiopathic/treatment-resistant chronic cough patient assessed as urge to cough analogue scales at 600 mg BID measured after 2 weeks during double-blind randomized placebo-controlled crossover trial. The test is classed as functional.
Turning to `COc1cc(C(C)C)c(Oc2cnc(N)nc2N)cc1S(N)(=O)=O` [GEFAPIXANT], the Activity is given as -21 mm.

The species entered for the next test is Homo sapiens. The test is described as follows: Anti-tussive activity in idiopathic/treatment-resistant chronic cough patient assessed as global ratings of change and cough quality of life questionnaire at 600 mg BID measured after 2 weeks during double-blind randomized placebo-controlled crossover trial. It counts as functional.
As to `COc1cc(C(C)C)c(Oc2cnc(N)nc2N)cc1S(N)(=O)=O` [GEFAPIXANT], the Activity_index is on record as -9.

For a further test, the species on record is Homo sapiens. The test is described as follows: Anti-tussive activity in idiopathic/treatment-resistant chronic cough patient assessed as reduction in daytime cough per hour at 600 mg BID measured after 2 weeks during double-blind randomized placebo-controlled crossover trial. It counts as functional.
Consider `COc1cc(C(C)C)c(Oc2cnc(N)nc2N)cc1S(N)(=O)=O` [GEFAPIXANT], for which the “inhibition (INH)” value was determined as 75%.

The species named for the next test is Homo sapiens. The test can be described thus: Anti-tussive activity in patient with refractory chronic cough assessed as reduction in objective daytime cough counts at 600 mg BID measured after 2 weeks during double-blind randomized placebo-controlled crossover trial. The test is classed as functional.
With `COc1cc(C(C)C)c(Oc2cnc(N)nc2N)cc1S(N)(=O)=O` [GEFAPIXANT], the “inhibition (INH)” value was 75%.

The values are drawn from ChEMBL document CHEMBL3714764, “Diaminopyrimidine p2x3 and p2x2/3 receptor modulators for treatment of acute, sub-acute or chronic cough” (2015).
